The values that follow come from paper PMC9686657, “Protection against Oxidative Stress and Metabolic Alterations by Synthetic Peptides Derived from Erythrina edulis Seed Protein” (Antioxidants, 2022).

As a reminder, the IC50 is the point on the concentration scale where inhibition reaches its midpoint.

Series [1] relates to SH-SY5Y cells. The series can be described thus: Cell viability, MTT assay. Conditions: basal conditions, highest concentration 100 µM, 24 h; data not shown. In kind it is cell-based, human. The protocol:
Human neuroblastoma SH-SY5Y cells were obtained from the American Type Culture Collection (ATCC, […], Rockville, MD, USA) and grown in RPMI-1640 medium supplemented with 10% FBS, 2 mM L-glutamine, 1 mM sodium pyruvate, 1 mM NEAA, and 50 μg/mL gentamicin in a humidified incubator containing 5% CO2 and 95% air at 37 °C.
The effects of pajuro-derived peptides on cell viability were determined using the MTT assay, following the protocol previously described by Palma-Albino et al.. SH-SY5Y cells were seeded (2 × 10^4 cells/well) onto 96-well plates in complete medium with 1% FBS and incubated at 37 °C for 16 h. After discarding the culture medium, the peptide sample was added (at concentration of 10, 25, and 100 µM), and the plate was incubated for 24 h. Upon removing the supernatant, a MTT solution (2 mg/mL) was added, and the plate was incubated for 60 min at 37 °C. After this time, the supernatant was discarded, and the formazan crystals were dissolved in dimetilsulfoxide (DMSO). The absorbance was measured at 570 nm in the Infinite M200 Pro plate reader (Tecan Group AG). Three independent runs were performed for each sample. The results were expressed as percentage of the control, considered as 100%.
In general terms: Tetrazolium dyes change colour on reduction, which living cells bring about.

In series [2] the target is T1, ACE from rabbit lung (Oryctolagus cuniculus, UniProt P12822).
T1 construct: ACE from rabbit lung; purchased Sigma-Aldrich; host or cells: rabbit lung tissue
T1 sequence (P12822 34-1310): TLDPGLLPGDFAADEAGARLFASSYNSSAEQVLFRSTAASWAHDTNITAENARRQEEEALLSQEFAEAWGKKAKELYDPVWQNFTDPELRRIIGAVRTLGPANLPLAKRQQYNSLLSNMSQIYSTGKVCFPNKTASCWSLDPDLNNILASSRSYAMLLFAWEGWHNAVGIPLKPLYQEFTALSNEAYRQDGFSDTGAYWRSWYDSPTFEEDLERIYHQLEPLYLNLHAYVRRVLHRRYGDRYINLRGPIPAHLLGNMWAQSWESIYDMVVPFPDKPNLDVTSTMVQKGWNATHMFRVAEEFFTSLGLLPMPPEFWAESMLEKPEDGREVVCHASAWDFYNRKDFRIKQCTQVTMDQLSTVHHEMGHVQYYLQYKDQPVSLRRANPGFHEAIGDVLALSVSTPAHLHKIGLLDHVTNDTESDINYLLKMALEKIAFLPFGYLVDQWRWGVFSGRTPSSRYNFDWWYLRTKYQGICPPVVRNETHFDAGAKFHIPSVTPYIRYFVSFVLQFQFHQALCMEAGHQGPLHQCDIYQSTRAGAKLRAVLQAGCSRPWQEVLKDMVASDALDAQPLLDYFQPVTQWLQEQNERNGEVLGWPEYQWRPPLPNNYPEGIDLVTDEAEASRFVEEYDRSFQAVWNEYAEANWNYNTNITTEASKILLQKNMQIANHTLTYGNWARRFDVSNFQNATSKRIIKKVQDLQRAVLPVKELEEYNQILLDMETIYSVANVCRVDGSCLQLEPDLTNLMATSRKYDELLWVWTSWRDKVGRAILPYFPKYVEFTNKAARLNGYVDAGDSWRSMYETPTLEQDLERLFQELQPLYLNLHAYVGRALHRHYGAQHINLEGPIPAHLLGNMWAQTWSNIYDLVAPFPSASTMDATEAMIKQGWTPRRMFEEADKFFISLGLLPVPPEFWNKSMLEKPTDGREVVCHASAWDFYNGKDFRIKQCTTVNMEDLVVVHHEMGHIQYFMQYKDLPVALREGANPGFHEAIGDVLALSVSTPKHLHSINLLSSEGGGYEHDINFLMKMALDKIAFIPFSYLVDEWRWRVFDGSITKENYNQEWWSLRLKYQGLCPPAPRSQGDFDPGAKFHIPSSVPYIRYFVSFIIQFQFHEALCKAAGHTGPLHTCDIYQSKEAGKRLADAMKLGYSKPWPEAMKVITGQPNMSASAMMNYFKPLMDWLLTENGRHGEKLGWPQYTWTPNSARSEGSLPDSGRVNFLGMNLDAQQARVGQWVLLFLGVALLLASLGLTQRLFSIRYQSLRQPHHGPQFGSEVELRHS
As to the kind of experiment: ACE inhibitory activity (HHL substrate). It is filed as biochemical. To be noted: n.d. = activity not detected; mean ± SD; read-out: ACE Inhibition (IC50). The protocol:
The in vitro ACE inhibitory activity of peptides was measured following the methodology described by Hayakari et al., with some modifications. […] It was incubated at 37 °C for 60 min. […] Three independent runs were performed for each sample.

The target in series [3] is T2, DPP-IV (Homo sapiens, UniProt P27487).
T2 construct: purchased Sigma-Aldrich MAK203
T2 sequence (P27487 whole entry): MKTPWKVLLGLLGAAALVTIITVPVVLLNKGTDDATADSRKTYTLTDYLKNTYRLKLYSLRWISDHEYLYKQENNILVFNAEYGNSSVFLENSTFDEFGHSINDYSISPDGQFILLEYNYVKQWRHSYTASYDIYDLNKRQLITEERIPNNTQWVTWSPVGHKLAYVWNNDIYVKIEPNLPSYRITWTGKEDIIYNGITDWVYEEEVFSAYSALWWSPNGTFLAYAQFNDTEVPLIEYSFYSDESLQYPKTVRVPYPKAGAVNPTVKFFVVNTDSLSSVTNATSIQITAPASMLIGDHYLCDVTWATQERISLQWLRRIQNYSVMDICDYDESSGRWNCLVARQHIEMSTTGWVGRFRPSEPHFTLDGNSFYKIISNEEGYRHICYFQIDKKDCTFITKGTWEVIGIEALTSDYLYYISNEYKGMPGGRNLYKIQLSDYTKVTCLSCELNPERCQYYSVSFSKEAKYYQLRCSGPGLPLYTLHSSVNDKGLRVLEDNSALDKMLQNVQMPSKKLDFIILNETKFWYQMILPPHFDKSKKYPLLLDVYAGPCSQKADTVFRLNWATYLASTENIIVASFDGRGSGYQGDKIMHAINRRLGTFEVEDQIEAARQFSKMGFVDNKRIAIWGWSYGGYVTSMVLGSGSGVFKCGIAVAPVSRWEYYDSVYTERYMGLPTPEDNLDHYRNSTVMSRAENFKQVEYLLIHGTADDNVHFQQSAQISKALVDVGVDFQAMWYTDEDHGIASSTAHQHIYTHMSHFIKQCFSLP
The series can be described thus: DPP-IV inhibitory activity (Inhibitor Screening Kit MAK203). In kind it is biochemical. To be noted: n.d. = activity not detected; mean ± SD; read-out: DPP-IV Inhibition (IC50). The protocol:
The DPP-IV inhibitory activity was determined using the DPP-IV Inhibitor Screening Kit MAK203, according to the manufacturer’s instructions. […] After this time, the fluorescence was measured each 2 min at λexcitation and λemission of 360 and 460 nm, respectively, in the Infinite M200 Pro plate reader (Tecan Group AG). Three independent runs were performed for each sample. The results were expressed as IC50 value.

Series [4] has as its target α-glucosidase. Conditions: ref Vilcacundo et al. [46]; read-out: α-glucosidase inhibitory capacity (IC50); cited from earlier work.
The subject of series [5] is α-glucosidase from Saccharomyces cerevisiae. The series can be described thus: α-glucosidase inhibitory activity. In kind it is biochemical. To be noted: control acarbose at 10 mM. As to the method:
The α-glucosidase inhibitory activity was determined as previously reported, with some modifications. […] Three independent runs were performed for each sample. The results were expressed as percentage of the negative control, considered as 100%.

Series [6] deals with T3, α-amylase type VI-B from porcine pancreas.
T3 construct: α-amylase type VI-B from porcine pancreas; purchased Sigma-Aldrich; host or cells: porcine pancreas tissue
As to the kind of experiment: α-amylase inhibition assay. In kind it is biochemical. Conditions: control acarbose at 10 mM. As to the method:
The α-amylase inhibition assay was carried out following the methods described by Subramanian et al. and Kumar et al., with some modifications. Then, 200 µL of mixture, containing α-amylase (800 mU), 0.125% starch, and peptide (100 µM) or standard (at different concentrations) in 0.1 M phosphate buffer (pH 6.9), was incubated at 37 °C for 30 min. After adding 100 µL of a solution containing 1% 3,5-dinitrosalicylic acid and 30% sodium potassium tartrate in 0.4 M NaOH, shaking, and incubating at 100 °C for 10 min, the absorbance was measured at 540 nm in an Infinite M200 Pro plate reader (Tecan Group AG). Three independent runs were performed for each sample. The results were expressed as percentage of the negative control, considered as 100%.

The target in series [7] is T2, DPP-IV. Conditions: literature value; cited from earlier work.
Series [8] deals with T4, porcine pancreatic lipase type II.
T4 construct: porcine pancreatic lipase type II; purchased Sigma-Aldrich; host or cells: porcine pancreas tissue
As to the kind of experiment: Pancreatic lipase inhibitory activity. Conditions: control orlistat at 0.5 µM. It is filed as biochemical. The protocol: The pancreatic lipase inhibitory activity was determined following the protocols previously described, with some modifications. […] Three independent runs were performed for each sample. The results were expressed as percentage of the negative control, considered as 100%.

Read-outs that look alike come from different tables or passages of the source. Ends that are not written are not given here. Peptide text beside a SMILES is read from it.

As for `N[C@@H](Cc1ccc(O)cc1)C(=O)N1CCC[C@H]1C(=O)N[C@@H](CO)C(=O)N[C@@H](Cc1ccc(O)cc1)C(=O)O` [YPSY] (H-YPSY-OH; N-terminus and C-terminus assumed), the “effect on cell viability (cytotoxicity)” value in series [1] was “None of them, at the highest concentration assayed (100 µM), affected the cell viability”. For the same molecule, the IC50 in series [2] came out at 115.6 ± 0.26 µM; in series [3], 32.6 ± 1.6 µM.

As for AALWE [AALWE], the “effect on cell viability (cytotoxicity)” value in series [1] was “None of them, at the highest concentration assayed (100 µM), affected the cell viability”. For the same molecule, the IC50 in series [3] came out at 131 ± 2.34 µM. As for IQAEGGLT, the IC50 in series [4] was 110 µM. As for MFTGPY [MFTGPY], the “effect on cell viability (cytotoxicity)” value in series [1] was “None of them, at the highest concentration assayed (100 µM), affected the cell viability”. Moreover, the IC50 in series [3] is 214 ± 2.83 µM.

In the case of `C[C@H]1O[C@H](O[C@H]2[C@H](O)[C@@H](O)[C@@H](O[C@H]3[C@H](O)[C@@H](O)C(O)O[C@@H]3CO)O[C@@H]2CO)[C@H](O)[C@@H](O)[C@@H]1N[C@H]1C=C(CO)[C@@H](O)[C@H](O)[C@H]1O` (stereo partly shown) [acarbose], the “α-Glucosidase Inhibition” value in series [5] is given as 62.36 ± 0.54%. Also, the “α-Amylase Inhibition” value in series [6] is listed as 75.05 ± 1.55%. For SQLPGW [SQLPGW], in series [1], the “effect on cell viability (cytotoxicity)” value was “None of them, at the highest concentration assayed (100 µM), affected the cell viability”. Further, the half-maximal inhibitory concentration (IC50) in series [2] was 50.5 ± 0.95 µM. Regarding DGLGYY [DGLGYY], the “effect on cell viability (cytotoxicity)” value in series [1] is given as “None of them, at the highest concentration assayed (100 µM), affected the cell viability”. The IC50 in series [2] worked out at 82.6 ± 0.58 µM. Regarding diprotin A, in series [7], the IC50 was 24.7 µM. As to `CCCCCCCCCCC[C@@H](C[C@@H]1OC(=O)[C@H]1CCCCCC)OC(=O)[C@H](CC(C)C)NC=O` [orlistat], the “Pancreatic lipase Inhibition” value in series [8] was determined as 94.62 ± 0.90%.
